Reference: paper PMC6367362, “MD001, a Novel Peroxisome Proliferator-activated Receptor α/γ Agonist, Improves Glucose and Lipid Metabolism” (Scientific Reports, 2019)

Columns and labels:
[1] = test system: differentiated 3T3-L1 adipocytes; assay: qRT-PCR gene expression in differentiated 3T3-L1 adipocytes; format: cell-based, mouse; details: 24 h
Experimental: (§1) Figure 3 MD001 promotes glucose consumption by induction of GLUT expression. HepG2 (A), differentiated 3T3-L1 adipocytes (B), and differentiated C2C12 myotubes (C) were treated with vehicle, MD001 (10, 50 μM), or rosiglitazone (rosi, 10 μM) for 24 h; glucose consumption was examined as described in the Methods section. Cells were harvested for total RNA isolation. Relative expression levels of GLUT2 (D) and GLUT4 (E,F) were quantitated using qRT-PCR. *, **, and ^† vs. vehicle. Data represent the mean ± SD of three independent experiments. *P < 0.05, **P < 0.01, and ^†P < 0.01.
(§2) Figure 4 MD001 stimulates fatty acid oxidation in vitro. […] Relative gene expressions were analysed by qRT-PCR. HepG2 (D), differentiated 3T3-L1 adipocytes (E), and differentiated C2C12 myotubes (F) were treated with vehicle, MD001 (10 μM), or WY14643 (WY) (10 μM) for 24 h and the fatty acid oxidation rate was analysed as described in the Methods section. […]
(§3) Total RNA was isolated using an RNeasy kit (Qiagen, Germantown, MD, USA) according to the manufacturer’s instructions. Complementary DNA (cDNA) was synthesised by reverse transcription using 0.5 μg of total RNA, and quantitative RT-PCR was performed using Power SYBR Green PCR Master Mix (ABI Thermo Fisher Scientific, Foster City, CA, USA) on a StepOne 48-well real-time PCR system (ABI/Thermo Fisher Scientific). […]

[2] = test system: differentiated C2C12 myotubes; assay: qRT-PCR gene expression in differentiated C2C12 myotubes; format: cell-based, mouse; details: 24 h
Experimental: as §1, §2, §3

HepG2 cells = assay: In vitro glucose consumption assay, HepG2; format: cell-based, human; details: 10, 50 μM, 24 h
Experimental: as §1
The glucose consumption assay was performed as previously described. Briefly, cells were treated with MD001 or rosiglitazone […]. The conditioned medium from cultured cells was harvested and assayed for glucose content using a Glucose Colorimetric Assay Kit II (BioVision Inc., Milpitas, CA, USA).

wild type C57BL/6J mice = assay: Oral once-daily administration to wild type C57BL/6J mice; format: in vivo, mouse
Experimental: Supplementary Figure S6. MD001 has no influence on food intake of mice. (A) Wild type C57/BL6 mice were orally administered with vehicle, rosiglitazone (20 mg/kg), or MD001 (20 mg/kg) once a day for 60 days. The change in their body weight was evaluated and presented as gain of body weight per group (n = 5 - 6 in each group). (B) The 3-day food intake in wild type C57/BL6 mice or db/db mice during the administration of the indicated drug was measured three times (n = 5 - 6 in each group). The data represent the mean ± SD.
C57/BL6 mice. (A-H) Wild type C57/BL6 mice were administered with vehicle, rosiglitazone (20 mg/kg), or MD001 (20 mg/kg) (n = 5 in each group) for 60 days, and their blood metabolites were measured. (B) Blood glucose level was examined during the administration of the […]

PPARγ = molecular target: T1, PPARγ (Homo sapiens, UniProt P37231); assay: SPR analysis of binding to immobilised HA-PPARγ; details: MD001 31.25-500 μM
T1 construct: HA; made in house
T1 sequence (P37231 1-505): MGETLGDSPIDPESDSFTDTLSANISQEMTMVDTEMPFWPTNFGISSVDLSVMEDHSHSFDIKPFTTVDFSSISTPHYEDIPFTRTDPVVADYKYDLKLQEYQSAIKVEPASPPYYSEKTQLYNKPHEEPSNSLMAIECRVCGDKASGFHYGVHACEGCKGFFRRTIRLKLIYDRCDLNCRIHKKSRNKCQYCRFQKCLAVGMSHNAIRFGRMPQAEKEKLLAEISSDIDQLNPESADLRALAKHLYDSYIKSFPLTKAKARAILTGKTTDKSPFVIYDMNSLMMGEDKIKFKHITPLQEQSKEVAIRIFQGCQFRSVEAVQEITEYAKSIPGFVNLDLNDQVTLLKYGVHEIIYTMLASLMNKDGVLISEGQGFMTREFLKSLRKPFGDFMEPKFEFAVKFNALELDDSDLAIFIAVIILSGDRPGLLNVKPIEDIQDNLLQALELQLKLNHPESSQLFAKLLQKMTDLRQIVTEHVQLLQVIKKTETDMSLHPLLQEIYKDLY
Experimental: SPR analysis was performed using a Reichert SR7500DC (Reichert Technologies, Depew, NY, USA). HA-PPARα, HA-PPARβ/δ, and HA-PPARγ were purified as previously described[23] and was immobilised on CMDH chips (Reichert Technologies) according to the manufacturer’s instructions. MD001 was loaded in a dose-dependent manner (31.25, 62.5, 125, 250, and 500 μM) for the SPR assay. The dissociation constant (KD) value was determined using the Scrubber2 program (Informer Technologies, Inc., Los Angeles, CA, USA).

[3] = wild type C57BL/6J mice, 20 mg/kg, 60 days, compared to vehicle
[4] = wild type C57BL/6 mice, 20 mg/kg, 60 days

## Cc1c(O)cc(O)c2c(-c3ccccc3)c(C(=O)/C=C/c3ccccc3)c(=O)oc12 [MD001]
[1]; 10 μM
  expression levels of ACOX and CPT: significantly increased
[1]; 10, 50 μM
  expression of glucose transporter GLUT4: significantly increased
[2]; 10 μM
  expression levels of ACOX and CPT: significantly increased
[2]; 10, 50 μM
  expression of glucose transporter GLUT4: significantly increased
HepG2 cells
  glucose consumption: significantly increased glucose consumption in a dose-dependent manner
Wild type C57BL/6J mice; wild type C57BL/6J mice, once a day for 60 days
  body weight gain: no induction of body weight gain
Wild type C57BL/6J mice; wild type C57BL/6J mice, 20 mg/kg once a day for 60 days
  H&E staining of adipose tissue, skeletal muscle, and liver: no differences
Wild type C57BL/6J mice; [3]
  blood glucose: did not have any effect
  levels of plasma lipids: did not have any effect
Wild type C57BL/6J mice; [4]
  blood ALT levels: no effect
  blood AST levels: no effect
PPARγ
  Kd: 140 ± 30 nM
